Assays:
[1] = test system: caspofungin-treated C. albicans cells; assay: Flow cytometry antibody-recruiting assay on C. albicans grown with caspofungin; format: cell-based, Candida albicans
Method: The synergistic experiments with Caspofungin were performed as described above, Save that yeast cell cultures were grown in Sabouraud dextrose broth supplemented with a fixed concentration of Caspofungin acetate from DMSO stock solutions.
Cultures of C. albicans Ca2323 were grown in Sabourad dextrose broth (Hardy Diagnostics, CA) to maintain them in a non-sporulating yeast form (blastopore form). S. cerevisiae YPH499 (Mat type a) were grown in YPD brath (Teknova, CA). Chitin-deficient strain S. cerevisiae YMS348s Δchs 1,2,3 was grown in YPD broth supplemented with 1M sorbitol. The fungal cultures were generally grown overnight at 30° C. for the antibody recruitment and phagocytosis assays. For consistency, O.D. measurements were taken using a single cuvette UltraSpec 10 cell density meter and experiments were performed on cultures with similar density. For experiments involving caspofungin treated C. albicans, the cells were grown overnight in media containing 1.25 ng/ml caspofungin acetate (Merck, PA). For experiments involving α factor induced arrest, α factor pheromone trifluoroacetate salt (Bachem, Switzerland) was added to a fresh S. cerevisiae YPH499 culture to a final concentration of 5 μg/mL followed by incubation for 1 h. Then, the cells were treated repeatedly with α factor pheromone trifluoroacetate salt (5 μg/mL) and incubated for an additional 2 h.
Fungal cells for the antibody recruitment experiments were always grown to 1.0 O.D. for consistency across experiments. The fungal cells were pelleted, washed, counted on the flow cytometer and re-constituted in FACS buffer of PBS containing 5% BSA at a density of 1×10^5 cells/mL. One microliter of suitably diluted ARM compound followed by 1 μL of 1:100 diluted anti-DNP biotinylated mouse monoclonal antibody (2 mg/mL, Invitrogen, CA) was added to 100 μL of fungal cells in FACS buffer. The reaction was mixed well and incubated in a 37° C. incubator for 30 minutes. Post incubation, washing was performed by adding 1 mL of FACS buffer to the reaction and the cells pelleted by centrifugation at 10000x g for 5 minutes. The pelleted cells were then reconstituted in 100 μl of FACS buffer followed by addition of 1 μL of 1:1000 diluted AF647 labeled streptavidin (0.5 mg/mL, BioLegend, CA) and 1 μL of 100 μg/ml propidium iodide (PromoKine, Germany). […] All experiments consisted of two sets of controls: (i) flow controls: unstained cells, propidium iodide stained cells, secondary reagent stained cells; (ii) background controls: compound 9 lacking DNP motifs, and no ARM-F. The cells were analyzed by flow cytometry on an Attune Nxt flow cytometer (Thermo Fischer Scientific) and the raw data further analyzed using FlowJo software (FlowJo LLC, OR).

Candida albicans = assay: Flow cytometry antibody-recruiting assay (anti-DNP antibodies) on C. albicans; format: cell-based
Method: Candida albicans cultures were maintained on Sabouraud dextrose agar (SDA) and yeast cell cultures were grown at 30° C. in Sabouraud dextrose broth with shaking at 225 rpm overnight (OD 1.1-1.3). For the assays, 10^5 cells were taken into 50 μL assay medium (5% BSA in PBS 1x) and treated with a fixed concentration of the indicated ARM-F compound from 100x DMSO stocks followed by imminent addition of 50 μL 500x stock solution of anti-DNP-biotine-xx conjugate antibodies in assay medium. Cells were allowed to incubate for 30 min at r.t., then washed twice with 500 μL assay medium followed by addition of 50 μL 500x stock solution of streptavidin-AlexaFluor 647 conjugate and propidium iodide. […] The cells were allowed to incubate for another 30 min, washed with 500 μL assay medium and antibody recruiting to the cell surface was evaluated via flow cytometry by measuring increasing cell counts in the FL-4 channel negative for FL-3.
A flow-cytometry based assay was developed to assess the antibody recruitment ability of candidate ARM-Fs to isolates of C. albicans. We chose this organism for our studies because it is both a known human pathogen, and readily tractable for experimental manipulations.^[13] Ternary complexes formed from ARM-F, fungal cells and anti-DNP antibodies were detected using an anti-DNP secondary antibody conjugated to Alexa Fluor 647 fluorophore. […]

C. albicans = assay: Dual color flow cytometry-based fungal opsono-phagocytosis assay; format: cell-based, Candida albicans
Text: In the physiological state, neutrophils mediate immune clearance of antibody-opsonized fungal cells.^[18], [19] To mimic this mechanism, we developed a functional assay to analyse ARM-F mediated opsonophagocytosis of fungal cells. The assay is based on two color flow cytometry and operates on the principle of differentiating phagocytosed fungal cells (intracellular) from non-phagocytosed cells (extracellular).^[20] […]
The pro-myeloblast cell line HL-60 was obtained from AtCC and cultured in high serum DMEM-F12 growth medium containing 15% FBS, 1 mM sodium pyruvate, 2 mM L-glutamine, 1X non-essential amino acids with antibiotics penicillin (10 U/mL) and streptomycin (10 μg/mL). […] The cells were counted every 24-48 hours on a Roche Innovatis Cedex XS automated cell counter and generally maintained at a density of 1×10^5 cells/mL. […]
Fungal cells for these experiments were always grown to 1.0 OD and the HL-60 cells to approximately 1×10^5 cells/mL for consistency between experiments. The fungal cells were counted by flow cytometry, pelleted and reconstituted in a fixing solution of ice-cold 70% ethanol and incubated for 1 h. […] After the final wash, the fungal cells were counted again on the flow cytometer and re-constituted in FACS buffer of PBS containing 5% BSA at a density of 2×10^6 cells/mL. […]

[2] = ELISA assay for antibody recruitment on immobilized chitin; format: binding; conditions: FIG. 9A
Method: Free chitin (0.100 g, Alfa Aesar, United Kingdom) was hydrolyzed by adding 10 ml of conc. HCl for 30 min with gentle stirring. An aliquot of the chilin solution(1 mL) was mixed with 9 ml of PBS to the final concentration of 1 mg/mL. This solution was further diluted to 100 μg/mL with PBS and coated overnight at 4° C. in a 96-well Nunc MaxiSorp microtiter plate. Upon completion, the coated plate was blocked with 2% BSA solution at 37° C. for 3 h. Next, compounds and controls at predetermined dilutions made in the 2% BSA blocking solution were added followed by addition of 2 mg/ml anti-DNP biotinylated antibodies diluted 1:100 (Invitrogen, CA). The plate was covered and incubated at 37° C. for 1 h. The plate was washed 3 times with wash solution (0.2% Tween 20 in PBS) and HRP-labeled streptavidin secondary reagent was added at a dilution 1:10000 in 2% BSA. The plate was incubated again at 37° C. for 1 h followed by washing 3 times with wash solution. HRP substrate TMB Ultra solution (Thermo Fischer, IL) was added to the plates and incubated until suitable color development and the reaction was stopped by adding 100 μL of aq. 1N H2SO4. Quantification was performed by measuring absorbance on a plate reader at 450 nm.

Row | SMILES | viability of C. albicans at caspofungin concentrations higher than 1.25 ng/ml ([1]; FIG. 9C) | viability of fungal cells during antibody recruitment (Candida albicans; dose-dependent recruitment, FIG. 8B) | C. albicans cells exhibiting AF647 fluorescence (Candida albicans; no caspofungin, FIG. 8A) | concentration of maximal phagocytosis response (C. albicans; bell-shaped curve, FIG. 10C) [µM] | phagocytosis of C. albicans cells (in words) (C. albicans; human neutrophils, anti-DNP antibodies, compared to untreated cells) | binding to chitin (in words) [2] | fungal cells that recruited antibodies and were alive ([1]; 1 μM of 8, 1.25 ng/ml caspofungin, FIG. 9C) [%] | dose eliciting antibody recruitment comparable to the maximum possible in the non-caspofungin model ([1]; caspofungin treated C. albicans, FIG. 9D) [nM] | concentration eliciting maximum response in caspofungin treated cells ([1]; dose ranging, caspofungin treated C. albicans, FIG. 9D) [µM]
1 | CC[C@H](C)C[C@H](C)CCCCCCCCC(=O)N[C@H]1C[C@@H](O)[C@@H](NCCN)NC(=O)[C@@H]2[C@@H](O)CCN2C(=O)[C@H]([C@H](O)CCN)NC(=O)[C@H]([C@H](O)[C@@H](O)c2ccc(O)cc2)NC(=O)[C@@H]2C[C@@H](O)CN2C(=O)[C@H]([C@@H](C)O)NC1=O [Caspofungin, reference compound] | reduced viability |  |  |  |  |  |  |  | 
2 | O=C(NCCOCCOCCOCCOCCOCCOCCOCCOCCOCCNc1ccc([N+](=O)[O-])cc1[N+](=O)[O-])c1ccc(Nc2nc(Nc3ccc(/C=C/c4ccc(Nc5nc(Nc6ccc(C(=O)NCCOCCOCCOCCOCCOCCOCCOCCOCCOCCNc7ccc([N+](=O)[O-])cc7[N+](=O)[O-])cc6)nc(N(CCO)CCO)n5)cc4S(=O)(=O)O)c(S(=O)(=O)O)c3)nc(N(CCO)CCO)n2)cc1 [compound 8] |  | no loss of viability | 35-45% | 10 | drastic increase in number of phagocytosed fungal cells | binds to fungal chitin in a dose-dependent manner | 90 | 10 | 1

— US20190209572A1, “BIFUNCTIONAL ANTIFUNGAL AGENTS AND METHODS OF TREATING FUNGAL INFECTION” (YALE UNIVERSITY, priority 2016, published 2019)
